Data taken from US20020018762A1, “Utilizing camptotheca products for termite control” (priority 2000, published 2002).
Read-outs that look alike come from different tables or passages of the source.

Legend:
[1] = tested on: Masson pine caterpillar (Dendrolimus punctatus); settings: cited from earlier work
[2] = Water soak of Camptotheca stakes, HPLC analysis of extracted flavonoids and CPTs (Example 5, FIG. 3); type: physicochemical
Source text: For example, the Camptotheca wood containing CPTs (CPT concentrations: 30-100 ppm) after extraction of flavonoids may be used in preparation of termite-resistant wood products such as composition boards, particleboards, and fiberboards. FIG. 3 illustrates the effect of a water soak on the content of flavonoids and CPT over time.
In July 2000, we conducted an experiment with several pieces of Camptotheca stakes (c. 10 cm in length and 3 cm in diameter) soaked in nanopure water. A month later, water samples were collected from the water with stakes and only water (as control) for HPLC analysis.

[3] = tested on: termites (including drywood termite, Incistermes snyderi); assay: Field test of termite resistance of sprayed southern yellow pine boards (Example 3); type: in vivo
Procedure: There were 4 treatments including 3 pieces of sound southern yellow pine boards (30×9×4 cm) each. The wood was treated with either a natural product isolated from Camptotheca acuminata or water as a control. […] The boards were randomly placed on the ground where no termites were observed. The wood condition and termite activity were checked and recorded every week beginning May 20, 2000.

[4] = Effect of the particleboard process on CPT content (FIG. 4); type: physicochemical; settings: heat and pressure pressing
Source text: Particleboard is an engineered wood product used as core material in the construction of home and office furniture, shelving and kitchen cabinets, as well as commercial and institutional fixtures. The major source for the manufacture of particleboard is southern yellow pine. Termite-resistant particleboard is not available. The present invention provides a method of preparing termite-resistant particleboards by including 30-70% Camptotheca wood in combination with currently-existing particleboard materials, e.g., pine, in a process as shown in Example 6. […] Similarly, the CPT content 260 in the raw material from bark and wood 290 and the particleboard from bark and wood 300 remained the same after the particleboard process.
Termite-resistant particleboards were prepared in accordance with the invention, using southern yellow pine mixed with natural Camptotheca acuminata wood after extraction of flavonoids. Six 5-year-old Camptotheca acuminata trees were harvested. The wood materials were classified into: trunk wood without bark, trunk wood with bark, branch wood without bark, and branch wood with bark. The sample materials were chipped and milled into uniformly small particles (20-30 mesh) and soaked in water for a week. The southern yellow pine wood was prepared in the same size as the control sample. […]

subterranean termites = settings: for Damage to the treated wood sample: 4-week observation period; for Termites dead within 24 hours: of 30 termites
Procedure: 180 active subterranean termites, were grown in 9 cm Petri dishes in the dark with 30 termites in each of six dishes. In each dish, a filter paper is on the bottom to retain moisture along with a piece of treated southern yellow pine wood (relatively fresh, 3×3×7 cm). The wood was treated with one of the following natural products isolated from Camptotheca acuminata or water (as control) for 30 minutes and then dried: (1) pure CPT (>97%) (3.8 mg/l=3.8 ppm, with water as the solvent); (2) OHCPT (10-hydroxycamptothecin: 3.8 mg/l=3.8 ppm, with water as the solvent); (3) raw extraction of CPTs from young tissues (alkaloids: 8.75 mg/l=8.75 ppm, with 95% ethanol as the solvent); (4) flavonoids (13.9 mg/l=13.9 ppm with water as the solvent); (5) ethanol (95%); and (6) water (control). The termites and wood condition were checked and recorded every hour for the first 12 hours and every 8 hrs thereafter. The observation period was 4 weeks (May 20 to Jun. 17, 2000).

[5] = tested on: subterranean termites (Reticultitermes virginicus)
Procedure: 60 active subterranean termites (Reticultitermes virginicus) were grown in 9 cm Petri dishes in dark with 15 termites (10 soldiers and 5 workers) in each of four dishes. In each dish, a filter paper is placed on the bottom of the dish to retain moisture along with a piece of treated southern yellow pine wood (decayed, 3×3×7 cm). The wood was treated with one of the following natural products isolated from Camptotheca acuminata or water (as control) for 30 minutes and then dried: (1) pure CPT (>97%) (camptothecin, 3.8 mg/l=3.8 ppm, with water as the solvent); (2) raw extraction of CPTs from young tissues (alkaloids: 8.75 mg/l=8.75 ppm, with 95% ethanol as the solvent); (3) flavonoids (13.9 mg/l=13.9 ppm with water as the solvent); and (4) water (control). The termites and wood condition were checked and recorded every hour for the first 12 hours and every 8 hrs thereafter. The observation period was 4 weeks (May 17 to Jun. 14, 2000).

[6] = 30 termites per dish, CPT 3.8 ppm, OHCPT 3.8 ppm, raw CPTs 8.75 ppm, flavonoids 13.9 ppm, ethanol 95%
[7] = 15 termites per dish, wood treated 30 min, CPT 3.8 ppm, raw CPTs 8.75 ppm, flavonoids 13.9 ppm

## CC[C@@]1(O)C(=O)OCc2c1cc1n(c2=O)Cc2cc3ccccc3nc2-1 [CPT, camptothecin]
[1]; after treatment with 0.05% CPT
  Hatchability of eggs: decreased
[1]; after treatment with CPT
  Mortality of insect larvae, pupae, and adults: increased
[2]; day 7
  Extraction by water soak at day 7 (FIG. 3): not extracted
[2]; day 30
  Extraction by water soak at day 30 (FIG. 3): remains water insoluble
[3]; field, three months, CPT 380 ppm, raw CPTs 8.75 ppm, flavonoids 13.9 ppm
  Termite damage of treated wood (based on weight): no termite damage
[3]; within 3 months
  Termite damage of treated southern yellow pine lumber in the field: damage-free
[4]
  Effect of particleboard process on CPT content: no significant effect
Subterranean termites
  Damage to the treated wood sample: no obvious damage
  Termites dead within 24 hours: 12
Subterranean termites; 30 termites per dish
  Time within which termite mortality was 100%: ≤ 5 days
Subterranean termites; [6]
  Mortality within 1 week: 100%
  Mortality within 4 weeks: 100%
Subterranean termites; CPT 3.8 ppm
  Time after which all termites became inactive: 10 h
Subterranean termites; in vivo
  Termite behaviour toward the treated wood (repellency / attraction): avoided getting close to the wood after the initial contract
[5]; 4-week observation period
  Damage to the treated wood sample: no obvious damage
[5]; 15 termites per dish, CPT 3.8 ppm, raw CPTs 8.75 ppm
  Time within which termite mortality was 100%: ≤ 4 days
[5]; [7]
  Mortality within 1 week: 100%
  Mortality within 4 weeks: 100%
[5]; 15 termites per dish, wood treated 30 min, CPT 3.8 ppm, raw CPTs 8.75 ppm, flavonoids 13.9 ppm, listed as purified CPT
  Mortality within 1 week: all termites dead
[5]; CPT 3.8 ppm
  Time after which termites became inactive: 6 h
[5]; of total 15 termites, CPT 3.8 ppm
  Termites dead within 36 hours: Six
[5]; summary of Examples 1 and 2
  Termite damage of treated pine stakes within a week: damage free

## CCO [Ethanol, ethanol]
Subterranean termites
  Damage to the treated wood sample: No wood damage
Subterranean termites; in vivo
  Mortality within 1 week: 100%
  Mortality within 4 weeks: 100%

## CC[C@@]1(O)C(=O)OCc2c1cc1n(c2=O)Cc2cc3cc(O)ccc3nc2-1 [OHCPT, 10-hydroxycamptothecin]
Subterranean termites
  Damage to the treated wood sample: no obvious damage
  Termites dead within 24 hours: 16
Subterranean termites; 30 termites per dish
  Time within which termite mortality was 100%: ≤ 6 days
Subterranean termites; [6]
  Mortality within 1 week: 100%
  Mortality within 4 weeks: 100%
